Experimental data taken from patent publication US20230063794A1, “STAPLED TRIAZOLE CO-AGONISTS OF THE GLUCAGON AND GLP-1 RECEPTORS” (Merck Sharp & Dohme LLC, priority 2019, published 2023).
Starred links: 1 amine or outer side, 2 acyl side, 3 side chain; linkers in the order of their positions; H or OH if unused. Positions of bridges follow the written chain, without caps; N, C: chain ends. Non-standard residues stand in square brackets, D forms with d. Residues, ends and D or L forms follow the SMILES beside them. Groups on a side chain read outwards from the residue. Triazole bridges read from a SMILES are 1,4-linked. *: point of attachment. Lys(N3) = [N-]=[N+]=NCCCC[C@H](N)C(=O)O; γGlu = O=C(O)[C@H](CCC(=O)[*:2])N[*:1]; Palmitoyl = CCCCCCCCCCCCCCCC(=O)*; dPra = C#CC[C@@H](N)C(=O)O; Nle = CCCC[C@H](N)C(=O)O; Aib = CC(C)(N)C(=O)O

What was measured:
human GCGR = target: T1, human GCGR (Homo sapiens, UniProt P47871); experiment: cAMP activity assay in cells expressing human GCGR; type: cell-based; conditions: ratio of human GCGR EC50 to human GLP1R EC50
T1 construct: expressed in transfected cells; grown under Blasticidin and Hygromycin selection
Description: (§1) Activity of the peptides at the Glucagon receptor (GCGR) and GLP-1 receptor (GLP1R) was measured in a cAMP activity assay.
(§2) Peptides were dissolved in 100% DMSO and serially diluted to generate 10 point titrations. The peptide solutions were then transferred into 384-well assay plates (150 nL/well). Assay ready frozen cells expressing human GLP1R or human GCGR were suspended in growth media consisting of DMEM medium (GIBCO), 10% FBS (GIBCO), 1× NEAA(GIBCO), 1× P/S (GIBCO), 10 ug/ml Blasticidin (GIBCO) and 200 μg/mL Hygromycin (GIBCO). Cells were then diluted in assay buffer consisting of PBS (GIBCO), 7.5% BSA (Perkin Elmer), 100 μM RO 20-1724 (Sigma), with or without 20% human serum (MP Biomedical). The cell suspensions (15 μL) were then added to the assay plates containing the peptide solutions (30,000 cells/well for human GCGR; 10,000 cells/well for human GLP1R). The cells were incubated for 1 hour at room temperature in the dark. Production of cAMP was determined using HitHunter™ cAMPXS kits (DiscoverX) following manufacturer protocol. The plates were incubated for overnight at room temperature in the dark. Luminescence was measured using an EnVision Multilabel plate reader (Perkin Elmer). Native GLP-1 and Glucagon (Bachem) are used as control peptides. EC50 values were calculated using uses a 4 parameter logistic fit based on the Levenberg-Marquardt algorithm.

human GLP1R = target: T2, human GLP1R (Homo sapiens, UniProt P43220); experiment: cAMP activity assay in cells expressing human GLP1R; type: cell-based; conditions: cAMP production, HitHunter cAMPXS, 1 hour; assay buffer with or without 20% human serum (not given)
T2 construct: expressed in transfected cells; grown under Blasticidin and Hygromycin selection
Description: as §1, §2

T1 sequence (P47871 26-477): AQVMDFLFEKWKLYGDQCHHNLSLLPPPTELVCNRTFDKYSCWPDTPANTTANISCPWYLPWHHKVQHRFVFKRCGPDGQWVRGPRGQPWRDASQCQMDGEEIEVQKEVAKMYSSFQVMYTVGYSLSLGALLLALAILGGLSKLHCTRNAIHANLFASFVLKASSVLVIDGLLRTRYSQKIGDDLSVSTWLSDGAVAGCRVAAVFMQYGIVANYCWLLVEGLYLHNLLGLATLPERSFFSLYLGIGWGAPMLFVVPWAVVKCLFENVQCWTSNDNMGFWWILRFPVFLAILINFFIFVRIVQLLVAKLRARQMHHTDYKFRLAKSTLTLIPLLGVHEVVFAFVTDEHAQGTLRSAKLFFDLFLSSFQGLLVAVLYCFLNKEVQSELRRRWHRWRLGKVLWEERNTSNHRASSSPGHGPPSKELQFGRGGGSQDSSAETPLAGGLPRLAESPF
T2 sequence (P43220 24-463): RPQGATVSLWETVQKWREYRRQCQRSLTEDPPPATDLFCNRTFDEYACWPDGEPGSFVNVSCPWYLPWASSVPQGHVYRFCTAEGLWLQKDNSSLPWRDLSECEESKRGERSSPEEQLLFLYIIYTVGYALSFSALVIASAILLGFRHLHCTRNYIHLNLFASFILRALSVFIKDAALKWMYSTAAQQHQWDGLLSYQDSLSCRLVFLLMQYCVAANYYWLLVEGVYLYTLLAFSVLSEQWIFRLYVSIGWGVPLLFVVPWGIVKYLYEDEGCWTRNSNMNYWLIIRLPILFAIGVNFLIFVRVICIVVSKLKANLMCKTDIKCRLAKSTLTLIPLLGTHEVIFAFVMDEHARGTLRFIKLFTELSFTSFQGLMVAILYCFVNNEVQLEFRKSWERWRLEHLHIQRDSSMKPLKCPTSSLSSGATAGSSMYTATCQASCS

| Structure (SMILES) | hGCGR/hGLP1R (hTone) (human GCGR) | EC50 (human GLP1R) [nM] |
| --- | --- | --- |
| CCCCCCCCCCCCCCCC(=O)N[C@@H](CCC(=O)N[C@@H](CCC(=O)NCCCC[C@H](NC(=O)[C@H](CC(=O)O)NC(=O)[C@H](CO)NC(=O)[C@@H](NC(=O)[C@H](Cc1ccccc1)NC(=O)[C@@H](NC(=O)CNC(=O)[C@H](CCC(N)=O)NC(=O)[C@@H](CO)NC(=O)[C@@H](N)Cc1c[nH]cn1)[C@@H](C)O)[C@@H](C)O)C(=O)N[C@@H](CO)C(=O)N[C@@H](CCCCN)C(=O)N[C@@H](Cc1ccc(O)cc1)C(=O)N[C@@H](CC(C)C)C(=O)N[C@@H](CC(=O)O)C(=O)N[C@@H](CCC(=O)O)C(=O)N[C@@H](CCCNC(=N)N)C(=O)N[C@@H](C)C(=O)N[C@@H](C)C(=O)N[C@@H]1Cc2cn(nn2)CCCC[C@@H](C(=O)N[C@@H](Cc2c[nH]c3ccccc23)C(=O)N[C@@H](CC(C)C)C(=O)N[C@@H](CC(C)C)C(=O)N[C@@H](CC(=O)O)C(=O)N[C@H](C(N)=O)[C@@H](C)O)NC(=O)[C@H](C(C)C)NC(=O)[C@H](Cc2ccccc2)NC(=O)[C@H](CC(=O)O)NC1=O)C(=O)O)C(=O)O [compound 7] (H-H[dS]QGTFTSDK([γGlu-γGlu-Palmitoyl])SKYLDERAA[dPra]DFV[Lys(N3)]WLLDT-NH2; triazole 20-24) | 0.95 | 0.042 |
| CCCCCCCCCCCCCCCC(=O)N[C@@H](CCC(=O)N[C@@H](CCC(=O)NCCCC[C@H](NC(=O)[C@H](CC(=O)O)NC(=O)[C@H](CO)NC(=O)[C@@H](NC(=O)[C@H](Cc1ccccc1)NC(=O)[C@@H](NC(=O)CNC(=O)[C@H](CCC(N)=O)NC(=O)C(C)(C)NC(=O)[C@@H](N)Cc1c[nH]cn1)[C@@H](C)O)[C@@H](C)O)C(=O)N[C@@H](CO)C(=O)N[C@@H](CCCCN)C(=O)N[C@@H](Cc1ccc(O)cc1)C(=O)N[C@@H](CC(C)C)C(=O)N[C@@H](CC(=O)O)C(=O)N[C@@H]1Cc2cn(nn2)CCCC[C@@H](C(=O)N[C@@H](CC(=O)O)C(=O)N[C@@H](Cc2ccccc2)C(=O)N[C@H](C(=O)N[C@@H](CCC(N)=O)C(=O)N[C@@H](Cc2c[nH]c3ccccc23)C(=O)N[C@@H](CC(C)C)C(=O)N[C@@H](CCCC)C(=O)N[C@@H](CC(=O)O)C(=O)N[C@H](C(N)=O)[C@@H](C)O)C(C)C)NC(=O)[C@H](C)NC(=O)[C@H](C)NC(=O)[C@H](CCCNC(=N)N)NC1=O)C(=O)O)C(=O)O [compound 16] (H-H[Aib]QGTFTSDK([γGlu-γGlu-Palmitoyl])SKYLD[dPra]RAA[Lys(N3)]DFVQWL[Nle]DT-NH2; triazole 16-20; N-terminus assumed) | 1.13 | 0.042 |
| CCCCCCCCCCCCCCCC(=O)N[C@@H](CCC(=O)N[C@@H](CCC(=O)NCCCC[C@H](NC(=O)[C@H](CC(=O)O)NC(=O)[C@H](CO)NC(=O)[C@@H](NC(=O)[C@H](Cc1ccccc1)NC(=O)[C@@H](NC(=O)CNC(=O)[C@H](CCC(N)=O)NC(=O)[C@@H](CO)NC(=O)[C@@H](N)Cc1c[nH]cn1)[C@@H](C)O)[C@@H](C)O)C(=O)N[C@@H](CO)C(=O)N[C@@H](CCCCN)C(=O)N[C@@H](Cc1ccc(O)cc1)C(=O)N[C@@H](CC(C)C)C(=O)N[C@@H](CC(=O)O)C(=O)N[C@@H](C)C(=O)N[C@@H]1Cc2cn(nn2)CCCC[C@@H](C(=O)N[C@@H](Cc2ccccc2)C(=O)N[C@H](C(=O)N[C@@H](CCC(N)=O)C(=O)N[C@@H](Cc2c[nH]c3ccccc23)C(=O)N[C@@H](CC(C)C)C(=O)N[C@@H](CC(C)C)C(=O)N[C@@H](CC(=O)O)C(=O)N[C@H](C(N)=O)[C@@H](C)O)C(C)C)NC(=O)[C@H](CCC(N)=O)NC(=O)[C@H](C)NC(=O)[C@H](C)NC1=O)C(=O)O)C(=O)O [compound 14] (H-H[dS]QGTFTSDK([γGlu-γGlu-Palmitoyl])SKYLDA[dPra]AAQ[Lys(N3)]FVQWLLDT-NH2; triazole 17-21) | 0.5 |  |
| CCCCCCCCCCCCCCCC(=O)N[C@@H](CCC(=O)N[C@@H](CCC(=O)NCCCC[C@H](NC(=O)[C@H](CC(=O)O)NC(=O)[C@H](CO)NC(=O)[C@@H](NC(=O)[C@H](Cc1ccccc1)NC(=O)[C@@H](NC(=O)CNC(=O)[C@H](CCC(N)=O)NC(=O)[C@@H](CO)NC(=O)[C@@H](N)Cc1c[nH]cn1)[C@@H](C)O)[C@@H](C)O)C(=O)N[C@@H](CO)C(=O)N[C@@H](CCCCN)C(=O)N[C@@H](Cc1ccc(O)cc1)C(=O)N[C@@H](CC(C)C)C(=O)N[C@@H](CC(=O)O)C(=O)N[C@@H]1Cc2cn(nn2)CCCC[C@@H](C(=O)N[C@@H](CC(=O)O)C(=O)N[C@@H](Cc2ccccc2)C(=O)N[C@H](C(=O)N[C@@H](CCC(N)=O)C(=O)N[C@@H](Cc2c[nH]c3ccccc23)C(=O)N[C@@H](CC(C)C)C(=O)N[C@@H](CC(C)C)C(=O)N[C@@H](CC(=O)O)C(=O)N[C@H](C(N)=O)[C@@H](C)O)C(C)C)NC(=O)[C@H](C)NC(=O)[C@H](C)NC(=O)[C@H](CCCNC(=N)N)NC1=O)C(=O)O)C(=O)O [compound 12] (H-H[dS]QGTFTSDK([γGlu-γGlu-Palmitoyl])SKYLD[dPra]RAA[Lys(N3)]DFVQWLLDT-NH2; triazole 16-20) | 0.8 |  |
